Assay: Hydroxyapatite assay (hydroxyapatite adsorption chromatography, bone-targeting potential)
Format: physicochemical
Settings: corrected retention K=(retention time−void time)/void on TSK-Gel HA 1000 column; linear gradient 10 mM to 500 mM sodium phosphate, 0.15 N NaCl, pH 6.8
Protocol: Hydroxyapatite is the principal mineral component of bone. Hydroxyapatite adsorption chromatography is used as an assay to evaluate the bone-targeting potential of both individual bone-targeting moieties (“monomers”) and of pharmaceuticals incorporating bone-targeting groups.
Method: The rentention time of a test compound is measured using a linear gradient from 10 mM sodium phosphate, 0.15 N NaCl, pH=6.8 to 500 mM sodium phosphate, 0.15 N NaCl, […] on a TSK-Gel HA 1000 high pressure liquid chromatography column (7.5 mm×75 mm). […] This K value is corrected using two reference compounds to correct from inter-column and inter-system variation to obtain a K′ value.
Reference Compounds: K′ values were determined for known bone targeted compounds, the bisphosphonate, alendronate and tetracycline.

K′ value: 3.7
SMILES: NCCCC(O)(P(=O)(O)O)P(=O)(O)O [Alendronate, alendronate]

Reference: patent publication US6706699B2, “Quinolines and uses thereof” (Ariad Pharmaceuticals, Inc., priority 2001, dated 2004)
